In patent US10167261B2, “2-oxo-3,4-dihydroquinolin-6-yl sulphonamide CPDS and their use as plant growth regulators” (THE REGENTS OF THE UNIVERSITY OF CALIFORNIA, priority 2014, dated 2019):

Experiments:
[1] = test system: corn plants (variety NK OCTET); assay: Water use (WU) of corn plants after foliar spray; assay type: in vivo; details: foliar spray at 500 μM, vs negative control
[2] = test system: corn plants (variety NK OCTET); assay: Water use (WU) of corn plants after foliar spray; assay type: in vivo; details: foliar spray at 500 μM, vs negative control; remark: listed apart in the source
Method: Compounds were tested for their effect on reducing plant water use as follows. The compounds were applied by foliar spray to 12 day old corn plants (variety NK OCTET) grown in controlled environment plant growth chambers. All compounds were applied using an emulsifiable concentrate (EC) formulation that was diluted to the desired concentrations with water containing 0.4% of the adjuvant rape seed methyl ester. Plant water use during the day was assessed by repeated weighing of the pots in which the plants were grown before and after application of the compounds at the indicated times (expressed in days after application (DAA)). The water use data before application was used to correct any differences in water use arising due to non-treatment effects (e.g. due to differences in plant size). The untransformed water use values were subjected to an analysis of covariance, fitting the effect of treatment and using the baseline water use 1 day before application as a covariate. Application of the chemicals (0 DAA) takes place approximately between 8 to 9:30 a.m. WU is measured within day time (chamber light is on 6:00 to 20:00) at these timepoints: 0 DAA AM (10:30-12:50) and 0 DAA PM (14:00-19:50), 1 DAA AM (7:30-12:50) and 1 DAA PM (14:00-19:50) and 2 DAA AM (7:30-12:50). The cumulative total WU (0-2 DAA) is calculated by summing the WU data mentioned above.

PYR1-HAB1 = PYR1-HAB1 (Arabidopsis thaliana (Mouse-ear cress), UniProt O49686); assay: PP2C activity assay, PYR1-HAB1; assay type: biochemical; details: 100 nM PP2C, 200 nM PYR/PYL protein, 4-nitrophenyl phosphate substrate; read-out: IC50 of inhibition of PYR1-HAB1
Text: (§1) The protein HAB1, a type 2 protein phosphatase (PP2C), is inhibited by PYR/PYL proteins in dependence of abscisic acid or other receptor agonists. The potency of a receptor agonists correlates with the level of inhibition of the PP2C, and therefore the IC50 (PYR1-HAB1) can be used to compare the relative activity of different chemical analogues. Since inhibition of PP2C correlates to inhibition of seed-germination and increase in plant water-use efficiency, it serves as a powerful tool to quantify biological potential of a chemical acting as an analogue of abscisic acid.
(§2) HAB1 and PYL proteins were expressed and purified as described in Park et al. ((2009) Science 324(5930):1068-1071), with minor modifications. To obtain GST-HAB1, the HAB1 cDNA was cloned into pGex-2T. Expression was conducted in BL21[DE3]pLysS host cells. Transformed cells were pre-cultured overnight, transferred to LB medium and cultured at 30° C. to culture A600 of ˜0.5.
(§3) The culture was then cooled on ice and MnCl2 added to 4 mM and IPTG added to 0.3 mM. After 16 hours incubation at 15° C., cells were harvested and recombinant proteins were purified on glutathione agarose as described in Park et al. To obtain 6×His-PYL receptor fusion proteins, expression constructs previously described by Okamoto et al. 2013, (PNAS 110(29): 12132-12137) were used. ABA receptors were expressed and purified as described above.
(§4) For the values shown in Table B5, PP2C activity assays using recombinant receptors and PP2Cs were carried out as follows: purified proteins were pre-incubated in 160 μl assay buffer containing 100 mM Tris-HCl-pH7.9, 100 mM NaCl, 3 μg bovine serum albumin, 0.1% 2-mercaptoethanol, 1 mM MnCl2 with ABA or agonists (compounds of the present invention) for 30 minutes at room temperature. Reactions were started by adding 40 μL of a reaction solution containing 25 mM 4-nitrophenyl phosphate in assay buffer after which absorbance measurements were immediately collected using a 405 nm on Wallac plate reader. Reactions contained 100 nM PP2C and 200 nM PYR/PYL proteins. […] For inferring IC50 values, calculations from receptor/PP2C assays containing different concentrations (ranging from 1 μM to 4 nM) were. The obtained dose response data was fit to a log (inhibitor) versus response-(variable slope) model using non-linear regression to infer the IC50s, using Graph Pad Prism 6.0.

[3] = test system: soybean plants (variety S20-G7); assay: Water use (WU) of soybean plants after foliar spray; assay type: in vivo; details: repeated experiment (Table B2), rate not given
Method: Chemicals were tested for their effect on reducing plant water use (WU) after being applied by foliar sprays onto soybean plants (variety S20-G7)—grown in controlled environment plant growth chambers. All chemicals were applied using an emulsifiable concentrate (EC) formulation that was diluted with water containing additional surfactant (EXTRAVON 1 g/20 L) to the indicated concentrations. Plant WU was assessed by multiple pot weighing processes before and after application of the chemicals at the indicated times (expressed in days after application (DAA)). The WU data before application was used to correct for differences in water use due to non-treatment effects (e.g. due to differences in plant size). The results are expressed compared to negative control treatment (water with EXTRAVON 1 g/20 L).
Application of the chemicals (0 DAA) takes place approximately between 8 to 9:30 a.m. […] The cumulative total WU (0-2 DAA) is calculated by summing the WU data mentioned above.

PYL2-HAB1 = PYL2-HAB1 (Arabidopsis thaliana (Mouse-ear cress), UniProt O80992); assay: PP2C activity assay, PYL2-HAB1; assay type: biochemical; details: 100 nM PP2C, 200 nM PYR/PYL protein, 4-nitrophenyl phosphate substrate; read-out: IC50 of inhibition of PYL2-HAB1
Text: as §1, §2, §3, §4

Arabidopsis seeds = assay: Arabidopsis germination inhibition analysis; assay type: in vivo; details: assessed after 3 days at 22° C. in the dark
Method: To analyse the effect of compounds on inhibition of germination, Arabidopsis seeds after-ripened for about 4 weeks were surface-sterilized with a solution containing 5% NaClO and 0.05% Tween-20 for 10 minutes, and rinsed with water four times. Sterilized seeds were suspended with 0.1% agar and sowed on 0.8% solidified agar medium containing ½ Murashige and Skoog (MS) salts (Sigma-Aldrich) in the presence of the relevant treatment, stored at 4° C. for 4 days, and then transferred to 22° C. under the dark conditions. Germination was assessed after 3 days.

Sequence of PYR1-HAB1 (O49686 whole entry, looked up): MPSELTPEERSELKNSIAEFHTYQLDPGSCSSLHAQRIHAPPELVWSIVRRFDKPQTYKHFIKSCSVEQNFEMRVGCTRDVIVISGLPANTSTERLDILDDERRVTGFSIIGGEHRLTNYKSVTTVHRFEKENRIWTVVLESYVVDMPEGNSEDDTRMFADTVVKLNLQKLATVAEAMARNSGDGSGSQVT
Sequence of PYR1-HAB1 (Q9CAJ0 whole entry partner, looked up): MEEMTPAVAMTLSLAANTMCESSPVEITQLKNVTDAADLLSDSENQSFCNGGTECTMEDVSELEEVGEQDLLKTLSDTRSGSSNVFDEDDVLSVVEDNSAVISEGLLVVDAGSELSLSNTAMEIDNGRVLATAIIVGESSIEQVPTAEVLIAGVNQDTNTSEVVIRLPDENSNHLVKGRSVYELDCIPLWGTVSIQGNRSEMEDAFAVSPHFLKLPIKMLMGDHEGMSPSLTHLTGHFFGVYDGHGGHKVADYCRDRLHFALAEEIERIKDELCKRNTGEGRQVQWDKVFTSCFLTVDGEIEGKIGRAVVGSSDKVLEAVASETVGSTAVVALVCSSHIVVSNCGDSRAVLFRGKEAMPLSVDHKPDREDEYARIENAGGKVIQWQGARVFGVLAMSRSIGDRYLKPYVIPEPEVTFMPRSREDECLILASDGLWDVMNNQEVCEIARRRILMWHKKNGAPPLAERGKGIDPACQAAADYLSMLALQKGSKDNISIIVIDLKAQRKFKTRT
Sequence of PYL2-HAB1 (O80992 whole entry, looked up): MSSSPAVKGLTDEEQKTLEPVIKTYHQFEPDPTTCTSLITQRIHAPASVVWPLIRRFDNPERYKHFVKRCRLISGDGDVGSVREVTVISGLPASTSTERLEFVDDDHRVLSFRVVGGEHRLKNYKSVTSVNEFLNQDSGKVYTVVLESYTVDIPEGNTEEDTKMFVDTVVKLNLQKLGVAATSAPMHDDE
Sequence of PYL2-HAB1 (Q9CAJ0 whole entry partner, looked up): as the sequence (Q9CAJ0 whole entry partner, looked up) above

Row | Compound | % WU 2 DAA PM [1] [%] | Total % WU 0 to 2 DAA ([2]; cumulative) [%] | % WU 0 DAA AM [2] [%] | % WU 0 DAA PM [2] [%] | % WU 1 DAA AM [2] [%] | % WU 1 DAA PM [2] [%] | % WU 2 DAA AM [2] [%] | IC50 (PYR1-HAB1) [nM] | % WU 2 DAA PM [3] [%] | Total % WU 0 to 2 DAA ([3]; cumulative) [%] | IC50 (PYL2-HAB1) [nM] | % germination at 1 μM (Arabidopsis seeds) [%] | % germination at 5 μM (Arabidopsis seeds) [%]
1 | CCN1C(=O)CC(C)c2cc(NS(=O)(=O)Cc3ccc(C4CC4)cc3)cc(F)c21 (stereo not drawn) [Compound 1.220, 1-(4-cyclopropylphenyl)-N-(1-ethyl-8-fluoro-4-methyl-2-oxo-3,4-dihydroquinolin-6-yl)methanesulfonamide] | −9 | −17.8 | −32.6 | −35.1 | −18.2 | −14.1 | −8.7 | 71 | −44.6 | −50.5 | 16 |  | 
2 | CCCN1C(=O)CCc2cc(NS(=O)(=O)Cc3ccc(C)cc3)ccc21 [drawing 28, reference compound] |  |  |  |  |  |  |  |  |  |  |  | 46 | 0
3 | CCCN1C(=O)CCc2cc(NS(=O)(=O)Cc3ccc(C4CC4)cc3)ccc21 [drawing 29] |  |  |  |  |  |  |  |  |  |  |  | 42 | 0
